Measured values from patent US11779569B2, “Methods and compositions for treating hyperhidrosis” (THERAVIDA, INC., priority 2016, dated 2023).
Blank lines part the entries; values can stand above or below the molecule they belong to.

Tests used:
[1] = Jacobs 1996; Cheshire and Fealey 2008; Salagen product insert; cited from earlier work
[2] = system: subjects with primary focal hyperhidrosis; assay: Hyperhidrosis Disease Severity Scale (HDSS), crossover clinical study; type: in vivo, human; settings: BID by mouth, 21-day treatment period; 1 point drop=50% reduction in sweating, 2 points=80% reduction
Text: (§1) The clinical study was a randomized, double blind, placebo-controlled, crossover study of approximately 18 subjects. Following qualification, subjects were randomized to one of 6 groups/sequences during which they received each of the three study treatments in sequential treatment periods. Each 21-day double-blind study treatment period was preceded by an at least 7-day washout period. Subsequent study treatment assignments were via the sequential three-way crossover design prescribed in that group. After completing the final study treatment period or early study treatment discontinuation, all subjects completed an end of study visit (approximately 14 days after the last study treatment administration. FIG. 5 illustrates a scheme of the clinical study design.
Subjects were randomized to 1 of 6 groups/sequences of study treatment administration. […]
(§2) Efficacy and safety analyses were conducted on study treatment (THVD-102 [7.5/7.5], oxybutynin or placebo). […] There was a statistically significant effect in each of three measures of efficacy: • 1) Hyperhidrosis Disease Severity Scale (p=0.03-0.05) • THVD-102 [7.5/7.5]=1.06±1.11; Oxybutynin=1.33±1.03; placebo=0.5±0.62 1 point drop=50% reduction in sweating; 2 points=80% reduction • 2) Hyperhidrosis Visual Analog Scale (p=0.01) • 3) Hyperhidrosis Visual Quantification Scale (p=0.005-0.07)

[3] = system: subjects with primary focal hyperhidrosis; assay: Dry Mouth Visual Analog Scale (DMVAS), crossover clinical study; type: in vivo, human; settings: 100 mm scale, 100 = worst; PP; n 18
Text: as §1, with “After completing the final study treatment period or early study treatment discontinuation, all subjects completed an end of study visit (approximately 14 days after the last study treatment administration. FIG. 5 illustrates a scheme of the clinical study design.” left out
The DMVAS will be used to quantify the severity of dry mouth experienced by subjects during this clinical trial. […] The score was determined by measuring the distance from the left anchor to where the line that the subject drew bisected the (100 mm) scale. The distance was measured and recorded in millimeters (mm). […]
as §2

[4] = system: subjects with primary focal hyperhidrosis; assay: Dry Mouth Questions (Dry Mouth Severity/Incidence Questionnaire), crossover clinical study; type: in vivo, human; settings: PP, n 18
Text: as §1
The active control of oxybutynin 7.5 mg is the comparator for THVD-102 [7.5/7.5] for the anti-muscarinic induced dry mouth symptom incidence and severity.
Subjects were randomized to 1 of 6 groups/sequences of study treatment administration. Each sequence included sequential crossover assignment to a 21-day treatment period of: • oxybutynin 7.5 mg BID alone by mouth; • THVD-102 [7.5/7.5] (oxybutynin 7.5 mg in combination with pilocarpine 7.5 mg) BID by mouth; and • placebo BID by mouth.
Dry Mouth Questions (Dry Mouth Severity/Incidence Questionnaire)
At the end of the end of each treatment period, investigational site staff questioned subjects regarding the incidence of dry mouth. This assessment occurred after the subject had completed the DMVAS and DTVAS and included questions relating to the incidence and severity of dry mouth symptoms and remedial actions taken. The investigator was instructed to query subjects in a non-judgmental, non-leading manner using the following script (© 2012, Thomas Tremblay and Robin Allgren) to elicit the incidence of dry mouth: • Have you had any dry mouth since starting (the most recent) study treatment? (at completion of Treatment Periods 1, 2, and 3)
as §2, with “placebo). Continuous data were summarized by using descriptive statistics (mean, SD, median, min, max) and categorical data were summarized in frequency tables. Using Day 1 of the first and each subsequent Treatment Period as baselines for measuring treatment effect, a Wilcoxon signed-rank test were performed.” for “placebo).”

SMILES: CC[C@@H]1C(=O)OC[C@@H]1Cc1cncn1C [pilocarpine, (3S,4R)-3-Ethyl-4-((1-methyl-1H-imidazol-5-yl)methyl)dihydrofuran-2(3H)-one]
- effect on sweating [1]: known to cause an increase in sweating

- Dry mouth Visual Analog Scale, Change D0-D21 [3]: 43.9 ± 27.9 mm
SMILES: CCN(CC)CC#CCOC(=O)C(O)(c1ccccc1)C1CCCCC1 (stereo not shown) [Oxybutynin, 4-Diethylaminobut-2-ynyl 2-cyclohexyl-2-hydroxy-2-phenylethanoate]
- Hyperhidrosis Disease Severity Scale [2]: 1.33±1.03
- Moderate/Severe dry mouth, number of subjects [4]: 13
- Moderate/Severe dry mouth, percent of subjects [4]: 72%
- None/Mild dry mouth, number of subjects [4]: 5
- None/Mild dry mouth, percent of subjects [4]: 27%
